In publication PMC10518255, “A first-in-class pan-lysyl oxidase inhibitor impairs stromal remodeling and enhances gemcitabine response and survival in pancreatic cancer” (Nature Cancer, 2023):

What was measured:
Ki67 = assay: Immunohistochemistry of end-point KPC tumors: proliferating cells; format: in vivo, mouse; conditions: KPC tumors at end point
Protocol: All tissues or matrices, including patient TMAs, were fixed in 10% buffered formalin and embedded in paraffin. The 4-μm sections of samples were deparaffinized with xylene and rehydrated in graded ethanol washes. For immunohistochemistry, Bond Dewax Solution (AR9222) was used. Antigen retrieval was performed using Bond RX H2(30) protocol: HIER 30 min ER1 (citrate pH 6) OR ER2 (EDTA pH 9) at 100 °C. Slides were quenched in BOND Polymer Refine Detection (Leica Biosystems DS9800). […] Slides were digitized on an Aperio slide scanner and representative areas per tumor acquired and analyzed by researchers blinded to the conditions of the experiment.
Extended Data Fig. 6 PXS-5505 in combination with gemcitabine in a KPC model. a. Quantification of proliferating cells (Ki67 positive nuclear staining) in KPC tumors at end point, treated as indicated. 5 fields of view (500 μm × 500 μm) per mouse and 10 mice per cohort were scored. […] Quantification of percent coverage of αSMA positive staining in KPC tumors at end point, treated as indicated. 3 fields of view (1000 μm × 1000 μm) per mouse and 10 mice per cohort were scored. […] Quantification of percent coverage of PDGFR-ß positive staining in KPC tumors at end point, treated as indicated. 3 fields of view (1000 μm × 1000 μm) per mouse and 10 mice per cohort were scored. […] 3 fields of view (500 μm × 500 μm) per mouse and 10 mice per cohort were scored. […]

[1] = Rat pharmacokinetics, single dose orally (10 mg/kg) or intravenously (5 mg/kg)
[2] = Tolerability in mouse PDAC models; format: in vivo; conditions: >6 months
Source text: In our KPC mouse and human PDX in vivo models of PDAC, PXS-5505 reduces collagen deposition and tumor stiffness and improves perfusion of agents into the primary tumor site. […] These in vivo findings match the in vitro organotypic data showing reductions in local invasion. Furthermore, addition of PXS-5505 to gemcitabine treatment extends median survival in the KPC model by approximately 45% and decreases metastatic deposits within the liver compared to gemcitabine alone.

Nc1ccn([C@@H]2O[C@H](CO)[C@@H](O)C2(F)F)c(=O)n1 [Gem, gemcitabine]
Ki67 positive tumor cells (Ki67): significantly decreasing the number of Ki67 positive tumor cells

Cl.Cl.NC/C=C(\F)CS(=O)(=O)c1cccc2cccnc12.O [PXS-5505, (Z)-3-fluoro-4-(quinolin-8-ylsulfonyl)but-2-en-1-amine dihydrochloride monohydrate]
Plasma concentration ([1]; 5 mg/kg iv, 0.03 hrs): 10.145 | Plasma concentration ([1]; 5 mg/kg iv, 0.17 hrs): 4.593 | Plasma concentration ([1]; 5 mg/kg iv, 0.5 hrs): 2.135 | Plasma concentration ([1]; 5 mg/kg iv, 1 hrs): 0.7139 | Plasma concentration ([1]; 5 mg/kg iv, 2 hrs): 0.1589 | Plasma concentration ([1]; 5 mg/kg iv, 3 hrs): 0.055 | Plasma concentration ([1]; 5 mg/kg iv, 5 hrs): 0.008393 | Plasma concentration ([1]; 10 mg/kg oral, 0.25 hrs): 2.305 | Plasma concentration ([1]; 10 mg/kg oral, 0.5 hrs): 3.551 | Plasma concentration ([1]; 10 mg/kg oral, 1 hrs): 3.399 | Plasma concentration ([1]; 10 mg/kg oral, 2 hrs): 0.9 | Plasma concentration ([1]; 10 mg/kg oral, 3 hrs): 0.198 | Plasma concentration ([1]; 10 mg/kg oral, 5 hrs): 0.02554 | Plasma concentration ([1]; 10 mg/kg oral, 8 hrs): 0.0075 | AUC(0-t) ([1]; plasma, po, 10 mg/kg): 1.6 µg·h/mL | Cmax ([1]; plasma, po, 10 mg/kg): 1.01 µg/mL | Tmax ([1]; plasma, po, 10 mg/kg): 48 min | bioavailability ([1]; plasma, po, 10 mg/kg, Bioavailability (F)): 75% | half-life ([1]; plasma, po, 10 mg/kg, T1/2, rat): 42 min | bioavailability ([1]; plasma, po, 10 mg/kg, bioavailability, oral administration, for rodents): > 75% | half-life ([1]; plasma, po, 10 mg/kg, half-life, oral administration): ~60 min | adverse side effects in mouse PDAC models [2]: no adverse side effects
